Reference: ChEMBL document CHEMBL1201862, “PubChem BioAssay data set” (2004)
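96-well plates; 48 h exposure; 5 concentrations. Endpoints by linear interpolation between flanking doses. Not reached: highest tested concentration assigned. At the GI50, growth is halved.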 Activity calls are given as the source filed them. Cut-off read from the data, not from the text of the source: active = GI50 up to about 1.1 µM and inactive = higher.

Columns and labels:
Experiment in all cases: inhibition of tumour cell growth, NCI panel, 48 h
786-0 = system: 786-0
A498 = system: A498
A549 = system: A549
ACHN = system: ACHN
CAKI-1 = system: CAKI-1
CCRF-CEM = system: CCRF-CEM
COLO 205 = system: COLO 205
DLD-1 = system: DLD-1
DMS-114 = system: DMS-114
DMS-273 = system: DMS-273
EKVX = system: EKVX
HCC 2998 = system: HCC 2998
HCT-116 = system: HCT-116
HCT-15 = system: HCT-15
HL-60 = system: HL-60
HOP-18 = system: HOP-18
HOP-62 = system: HOP-62
HOP-92 = system: HOP-92
HT-29 = system: HT-29
IGROV-1 = system: IGROV-1
K562 = system: K562
KM-20L2 = system: KM-20L2
KM12 = system: KM12
LXFL 529 = system: LXFL 529
M14 = system: M14
M19-MEL = system: M19-MEL
MOLT-4 = system: MOLT-4
Malme-3M = system: Malme-3M
NCI-H226 = system: NCI-H226
NCI-H23 = system: NCI-H23
NCI-H460 = system: NCI-H460
NCI-H522 = system: NCI-H522
OVCAR-4 = system: OVCAR-4
OVCAR-5 = system: OVCAR-5
OVCAR-8 = system: OVCAR-8
RPMI-8226 = system: RPMI-8226
RXF 393 = system: RXF 393
SF-268 = system: SF-268
SF-295 = system: SF-295
SF-539 = system: SF-539
SK-MEL-28 = system: SK-MEL-28
SK-MEL-2 = system: SK-MEL-2
SK-MEL-5 = system: SK-MEL-5
SK-OV-3 = system: SK-OV-3
SN12C = system: SN12C
SNB-19 = system: SNB-19
SNB-75 = system: SNB-75
SNB-78 = system: SNB-78
SR = system: SR
SW-620 = system: SW-620
TK-10 = system: TK-10
U-251 = system: U-251
UACC-257 = system: UACC-257
UACC-62 = system: UACC-62
UO-31 = system: UO-31
XF498 = system: XF498
OVCAR-3 = system: OVCAR-3
RXF 631 = system: RXF 631

**Q.** With COC(=O)[C@@]12OC[C@]34C([C@@H](O)C1O)[C@@]1(C)CC(=O)C(O)=C(C)C1C[C@H]3OC(=O)[C@H](OC(=O)CC(C)C(F)(F)F)[C@H]42 (stereo not given in full) as the molecule, how does the GI50 (786-0) read?
**A.** 64.6 nM (active)

**Q.** What about the GI50 (A498) of the same molecule?
**A.** 21.4 nM (active)

**Q.** And the GI50 (A549)?
**A.** 26.5 nM (active)

**Q.** And the GI50 (ACHN)?
**A.** 23.1 nM (active)

**Q.** And the GI50 (CAKI-1)?
**A.** 56 nM (active)

**Q.** What about the GI50 (CCRF-CEM) of the same molecule?
**A.** 12 nM (active)

**Q.** What about the GI50 (COLO 205) of the same molecule?
**A.** 101 nM (active)

**Q.** And the GI50 (DLD-1)?
**A.** 87.7 nM (active)

**Q.** What about the GI50 (DMS-114) of the same molecule?
**A.** 9.48 nM (active)

**Q.** And the GI50 (DMS-273)?
**A.** 6.93 nM (active)

**Q.** And the GI50 (EKVX)?
**A.** 128 nM (active)

**Q.** What about the GI50 (HCC 2998) of the same molecule?
**A.** 10.5 nM (active)

**Q.** And the GI50 (HCT-116)?
**A.** 10.1 nM (active)

**Q.** What about the GI50 (HCT-15) of the same molecule?
**A.** 166 nM

**Q.** And the GI50 (HL-60)?
**A.** 3.75 nM (active)

**Q.** And the GI50 (HOP-18)?
**A.** 308 nM (active)

**Q.** And the GI50 (HOP-62)?
**A.** 98.9 nM (active)

**Q.** And the GI50 (HOP-92)?
**A.** 9.53 nM (active)

**Q.** And the GI50 (HT-29)?
**A.** 13.3 nM (active)

**Q.** And the GI50 (IGROV-1)?
**A.** 16.8 nM (active)

**Q.** And the GI50 (K562)?
**A.** 15.7 nM (active)

**Q.** What about the GI50 (KM-20L2) of the same molecule?
**A.** 19.5 nM (active)

**Q.** And the GI50 (KM12)?
**A.** 32.4 nM (active)

**Q.** And the GI50 (LXFL 529)?
**A.** 7.31 nM (active)

**Q.** And the GI50 (M14)?
**A.** 34.7 nM (active)

**Q.** What about the GI50 (M19-MEL) of the same molecule?
**A.** 16.4 nM (active)

**Q.** What about the GI50 (MOLT-4) of the same molecule?
**A.** 4.7 nM (active)

**Q.** And the GI50 (Malme-3M)?
**A.** 10.1 nM (active)

**Q.** And the GI50 (NCI-H226)?
**A.** 10.8 nM (active)

**Q.** And the GI50 (NCI-H23)?
**A.** 12.6 nM (active)

**Q.** And the GI50 (NCI-H460)?
**A.** 5.42 nM (active)

**Q.** And the GI50 (NCI-H522)?
**A.** 8.91 nM (active)

**Q.** What about the GI50 (OVCAR-4) of the same molecule?
**A.** 67.6 nM (active)

**Q.** And the GI50 (OVCAR-5)?
**A.** 146 nM (active)

**Q.** And the GI50 (OVCAR-8)?
**A.** 57.4 nM (active)

**Q.** And the GI50 (RPMI-8226)?
**A.** 11.6 nM (active)

**Q.** What about the GI50 (RXF 393) of the same molecule?
**A.** 91.2 nM (active)

**Q.** And the GI50 (SF-268)?
**A.** 86.9 nM (active)

**Q.** And the GI50 (SF-295)?
**A.** 44.5 nM (active)

**Q.** What about the GI50 (SF-539) of the same molecule?
**A.** 10.5 nM (active)

**Q.** And the GI50 (SK-MEL-28)?
**A.** 12.1 nM (active)

**Q.** What about the GI50 (SK-MEL-2) of the same molecule?
**A.** 77.1 nM (active)

**Q.** And the GI50 (SK-MEL-5)?
**A.** 12.5 nM (active)

**Q.** What about the GI50 (SK-OV-3) of the same molecule?
**A.** 51.4 nM (active)

**Q.** And the GI50 (SN12C)?
**A.** 145 nM (active)

**Q.** And the GI50 (SNB-19)?
**A.** 8.02 nM (active)

**Q.** And the GI50 (SNB-75)?
**A.** 44.5 nM (active)

**Q.** And the GI50 (SNB-78)?
**A.** 206 nM (active)

**Q.** What about the GI50 (SR) of the same molecule?
**A.** 4.29 nM (active)

**Q.** What about the GI50 (SW-620) of the same molecule?
**A.** 22 nM (active)

**Q.** And the GI50 (TK-10)?
**A.** 66.2 nM (active)

**Q.** And the GI50 (U-251)?
**A.** 20.5 nM (active)

**Q.** And the GI50 (UACC-257)?
**A.** 75.9 nM (active)

**Q.** And the GI50 (UACC-62)?
**A.** 7.48 nM (active)

**Q.** And the GI50 (UO-31)?
**A.** 149 nM (active)

**Q.** And the GI50 (XF498)?
**A.** 5.22 nM (active)

**Q.** What does the source list for CC(C)OCN1COCN/C1=N/C#N?
**A.** GI50 (786-0): 98600 nM (inactive); GI50 (A498): > 100000 nM (inactive); GI50 (A549): > 100000 nM (inactive); GI50 (ACHN): > 100000 nM (inactive); GI50 (CAKI-1): > 100000 nM (inactive); GI50 (COLO 205): 20800 nM (inactive); GI50 (DLD-1): 26400 nM (inactive); GI50 (DMS-114): 58600 nM (inactive); GI50 (DMS-273): 37500 nM (inactive); GI50 (EKVX): > 100000 nM (inactive); GI50 (HCC 2998): > 100000 nM (inactive); GI50 (HCT-116): > 100000 nM (inactive); GI50 (HCT-15): 17700 nM; GI50 (HL-60): > 100000 nM (inactive); GI50 (HOP-18): > 100000 nM (inactive); GI50 (HOP-62): > 100000 nM (inactive); GI50 (HOP-92): > 100000 nM (inactive); GI50 (HT-29): 78300 nM (inactive); GI50 (IGROV-1): > 100000 nM (inactive); GI50 (K562): > 100000 nM (inactive); GI50 (KM-20L2): > 100000 nM (inactive); GI50 (KM12): > 100000 nM (inactive); GI50 (LXFL 529): > 100000 nM (inactive); GI50 (M14): > 100000 nM (inactive); GI50 (M19-MEL): > 100000 nM (inactive); GI50 (MOLT-4): > 100000 nM (inactive); GI50 (Malme-3M): > 100000 nM (inactive); GI50 (NCI-H226): > 100000 nM (inactive); GI50 (NCI-H23): > 100000 nM (inactive); GI50 (NCI-H460): > 100000 nM (inactive); GI50 (NCI-H522): > 100000 nM (inactive); GI50 (OVCAR-3): > 100000 nM (inactive); GI50 (OVCAR-4): > 100000 nM (inactive); GI50 (OVCAR-5): > 100000 nM (inactive); GI50 (OVCAR-8): > 100000 nM (inactive); GI50 (RXF 393): > 100000 nM (inactive); GI50 (RXF 631): > 100000 nM (inactive); GI50 (SF-268): > 100000 nM (inactive); GI50 (SF-295): > 100000 nM (inactive); GI50 (SF-539): > 100000 nM (inactive); GI50 (SK-MEL-28): > 100000 nM (inactive); GI50 (SK-MEL-2): > 100000 nM (inactive); GI50 (SK-MEL-5): > 100000 nM (inactive); GI50 (SK-OV-3): > 100000 nM (inactive); GI50 (SN12C): > 100000 nM (inactive); GI50 (SNB-19): > 100000 nM (inactive); GI50 (SNB-75): > 100000 nM (inactive); GI50 (SR): > 100000 nM (inactive); GI50 (SW-620): 18300 nM (inactive); GI50 (TK-10): > 100000 nM (inactive); GI50 (U-251): 42200 nM (inactive); GI50 (UACC-257): > 100000 nM (inactive); GI50 (UACC-62): > 100000 nM (inactive); GI50 (UO-31): > 100000 nM (inactive)
